Experimental data published in PMC3985639, “A widespread bacteriophage abortive infection system functions through a Type IV toxin–antitoxin mechanism” (Nucleic Acids Research, 2014).

Target: T1, AbiEii (AbiEii-His6) (Streptococcus agalactiae, UniProt Q8DZ35)
T1 construct: gene abiGII; full-length, C-terminal His6 tag kept, from pRLD56 in E. coli BL21 co-expressing AbiEi (pRLD69), Ni-NTA purified
T1 sequence (Q8DZ35 1-281): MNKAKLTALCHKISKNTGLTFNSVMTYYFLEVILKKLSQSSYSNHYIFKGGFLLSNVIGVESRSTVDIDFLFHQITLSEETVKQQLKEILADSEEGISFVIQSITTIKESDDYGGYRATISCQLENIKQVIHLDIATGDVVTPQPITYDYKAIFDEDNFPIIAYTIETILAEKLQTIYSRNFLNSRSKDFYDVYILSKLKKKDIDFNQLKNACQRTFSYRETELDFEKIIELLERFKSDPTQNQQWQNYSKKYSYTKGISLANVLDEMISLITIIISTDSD
Experiment: native PAGE gel shift of [α-32P]-NTP
Assay type: binding
Settings: labelled compound; 0.65 pmol; 10 mM Tris-HCl, […] MgCl2, 50 mM KCl, pH 8.3, 37 °C, 1 h

| Structure (SMILES) | native PAGE gel shift of [α-32P]-NTP |
| --- | --- |
| Nc1ncnc2c1ncn2[C@@H]1O[C@H](COP(=O)(O)OP(=O)(O)OP(=O)(O)O)[C@@H](O)[C@H]1O [ATP] | Limited binding to ATP was also observed |
| Nc1nc2c(ncn2[C@@H]2O[C@H](COP(=O)(O)OP(=O)(O)OP(=O)(O)O)[C@@H](O)[C@H]2O)c(=O)[nH]1 [GTP] | Increasing AbiEii-His6 concentrations led to retardation in GTP migration, demonstrating GTP binding |
